Source: US12552783B2, “Modulators of proteolysis and associated methods of use” (Arvinas Operations, Inc., priority 2018, dated 2026)

Molecular target: KRas (Homo sapiens, UniProt P01116, G12C)
Assay: KRas degradation in NCI-H2030 cells by Western blot, normalized to GAPDH (data of Table 14)
Type: cell-based
Design: host or cells: NCI-H2030
Conditions: for Dmax: NCI-H2030
Method: Cell Lines, Antibodies, and Reagents. NCI-H2030 (CRL-5914) and SW1573 (CRL-2170) cells were purchased from ATCC. Both cell lines are homozygous for the G12C mutation in KRas. NCI-H2030 cells were cultured in RPMI-1640 medium containing 1% penicillin-streptomycin and 10% fetal bovine serum (FBS). SW1573 cells were cultured in DMEM containing 1% penicillin-streptomycin and 10% FBS. The KRas detection antibody (Cat. No. LS-C175665) was purchased from LifeSpan Biosciences and was used at a dilution of 1:2000. GAPDH was detected using an antibody purchased from Cell Signaling Technology (Cat. No. 5174) and was diluted 1:3000. Secondary anti-mouse and anti-rabbit detection antibodies were purchased from Cell Signaling Technology (Cat. Nos. 7076 and 7074, respectively).
Compound Treatment and Western Blotting of the Data of Table 14. Either NCI-H2030 or SW1573 cells were plated in 12-well plates and allowed to adhere overnight at 37° C. in an incubator containing 5% CO2. The following day, the medium was replaced with the appropriate medium lacking FBS to induce starvation. Cells were returned to the incubator for an additional 24 hours following media exchange. […] Cells were treated with VHL-based compounds for 24 hours and all other compounds for 72 hours. Following treatment, cells were lysed in RIPA buffer (Thermo Fisher Cat. No. 89900) containing phosphatase (Thermo Fisher Cat. No. 1861277) and protease (Thermo Fisher Cat. No. 78429) inhibitor cocktails. Lysates were cleared at 13,000 rpm for 15 minutes and supernatants were assayed for total protein concentration using the Pierce BCA assay system (Thermo Fisher Cat. No. 23225). For each sample, 10 μg total protein was resolved on a 12% Bis-Tris gel and then transferred to a nitrocellulose membrane. After blocking in 3% BSA in TBST (Tris-buffered Saline with 0.1% Tween-20) for 1 hour at room temperature, membranes were probed with the primary antibody (LS Bio Cat. No. LS-C175665) overnight at 4° C. After incubation with the secondary antibody, the following day membranes were visualized using the SuperSignal™ West Femto substrate (Thermo Fisher Cat. No. 34095). The KRas signal in each lane was normalized to GAPDH and percent degradation was either estimated as less than 25% by visual inspection (C in Table 13) or quantitated relative to the DMSO control lane using BIO-RAD Image Lab 5.2.1, and all data was plotted using GraphPad PRISM 6.07.
DC50 is the half-maximal degradation concentration—i.e., the concentration at which 50% degradation is observed. DMax is the maximum degradation efficacy is achieved—i.e., the maximal degradation observed) degradation data.

Compound	Percent Degradation at Indicated Concentration (μM): 0.3 (H2030 cells, 0.3 μM)	Percent Degradation at Indicated Concentration (μM): 1 (H2030 cells, 1 μM)	Percent Degradation at Indicated Concentration (μM): 3 (H2030 cells, 3 μM)	Dmax (H2030 cells) [%]	Percent Degradation at Indicated Concentration (μM) (H2030, 0.3 μM)	Percent Degradation at Indicated Concentration (μM) (H2030, 1 μM)	Percent Degradation at Indicated Concentration (μM) (H2030, 3 μM)	Dmax [%]	other results
C=CC(=O)N1CCN(c2nc(NCCC(=O)N(C)CCOCCOCCOCCOc3ccc(-c4csc([C@@H]5CCCN5C(=O)[C@@H](NC(=O)[C@H](C)NC)C5CCCCC5)n4)c4ccccc34)nc3c(F)c(-c4cc(O)cc5ccccc45)c(Cl)cc23)CC1 [compound 273, 3-((4-(4-acryloylpiperazin-1-yl)-6-chloro-8-fluoro-7-(3-hydroxynaphthalen-1-yl)quinazolin-2-yl)amino)-N-(2-(2-(2-(2-((4-(2-((S)-1-((S)-2-cyclohexyl-2-((S)-2-(methylamino)propan-amido)acetyl)pyrrolidin-2-yl)thiazol-4-yl)naphthalen-1-yl)oxy)ethoxy)ethoxy)eth-oxy)ethyl)-N-methylpropanamide]	–	–	–	–	C (Percent Degradation: C ≤ 35)	C (Percent Degradation: C ≤ 35)	C (Percent Degradation: C ≤ 35)	≤ 35	–
C=CC(=O)N1CCN(c2nc(NCCC(=O)N(C)CCOCCNc3cccc4c3C(=O)N(C3CCC(=O)NC3=O)C4=O)nc3c(F)c(-c4cc(O)cc5ccccc45)c(Cl)cc23)CC1 (stereo not drawn) [compound 56, 3-((4-(4-acryloylpiperazin-1-yl)-6-chloro-8-fluoro-7-(3-hydroxynaphthalen-1-yl)quinazolin-2-yl)amino)-N-(2-(2-((2-(2,6-dioxopiperidin-3-yl)-1,3-dioxoisoindolin-4-yl)amino)ethoxy)ethyl)-N-methylpropanamide]	C (C ≤ 35)	C (C ≤ 35)	C (C ≤ 35)	≤ 35	–	–	–	–	–
C=CC(=O)N1CCN(c2nc(NCCC(=O)N(C)CCOCCOCCOCCOCCOc3ccc4c(c3)C(=O)N(C3CCC(=O)NC3=O)C4=O)nc3c(F)c(-c4cc(O)cc5ccccc45)c(Cl)cc23)CC1 (stereo not drawn) [compound 63, 3-((4-(4-acryloylpiperazin-1-yl)-6-chloro-8-fluoro-7-(3-hydroxynaphthalen-1-yl)quinazolin-2-yl)amino)-N-(14-((2-(2,6-dioxopiperidin-3-yl)-1,3-dioxoisoindolin-5-yl)oxy)-3,6,9,12-tetraoxatetradecyl)-N-methylpropanamide]	C (C ≤ 35)	C (C ≤ 35)	–	≤ 35	–	–	–	–	Percent Degradation at Indicated Concentration (μM): 0.1 (H2030 cells, 0.1 μM): C (C ≤ 35)
C=CC(=O)N1CCN(c2nc(NCCC(=O)N(C)CCOCCOCCOCCOCCOc3ccc4c(c3)CN(C3CCC(=O)NC3=O)C4=O)nc3c(F)c(-c4c(O)cccc4F)c(Cl)cc23)CC1 [compound 95, 3-(((S)-4-(4-acryloylpiperazin-1-yl)-6-chloro-8-fluoro-7-(2-fluoro-6-hydroxyphenyl)quinazolin-2-yl)amino)-N-(14-((2-(2,6-dioxopiperidin-3-yl)-1-oxoisoindolin-5-yl)oxy)-3,6,9,12-tetraoxatetradecyl)-N-methylpropanamide]	–	–	–	–	C (Percent Degradation: C ≤ 35)	C (Percent Degradation: C ≤ 35)	C (Percent Degradation: C ≤ 35)	≤ 35	–

More lines, main results first:

Percent Degradation at Indicated Concentration (μM): 0.3 (H2030 cells, 0.3 μM)	Percent Degradation at Indicated Concentration (μM): 1 (H2030 cells, 1 μM)	Percent Degradation at Indicated Concentration (μM): 3 (H2030 cells, 3 μM)	Dmax (H2030 cells) [%]	Percent Degradation at Indicated Concentration (μM) (H2030, 0.3 μM)	Percent Degradation at Indicated Concentration (μM) (H2030, 1 μM)	Percent Degradation at Indicated Concentration (μM) (H2030, 3 μM)	Dmax [%]	Compound	other results
C (C ≤ 35)	C (C ≤ 35)	C (C ≤ 35)	≤ 35	–	–	–	–	C=CC(=O)N1CCN(c2nc(NCCC(=O)N(C)CCOCCOCCOCCOCCOCC(=O)N[C@H](C(=O)N3C[C@H](O)C[C@H]3C(=O)N[C@@H](C)c3ccc(-c4scnc4C)cc3)C(C)(C)C)nc3c(F)c(-c4cc(O)cc5ccccc45)c(Cl)cc23)CC1 [compound 197, (2S,4R)-1-((2S)-24-((4-(4-acryloylpiperazin-1-yl)-6-chloro-8-fluoro-7-(3-hydroxynaphthalen-1-yl)quinazolin-2-yl)amino)-2-(tert-butyl)-21-methyl-4,22-dioxo-6,9,12,15,18-pentaoxa-3,21-diazatetracosanoyl)-4-hydroxy-N-((S)-1-(4-(4-methylthiazol-5-yl)phenyl)ethyl)pyrrolidine-2-carboxamide]	–
–	–	–	≤ 35	–	–	–	–	Cc1ncsc1-c1ccc([C@H](C)NC(=O)[C@@H]2C[C@@H](O)CN2C(=O)[C@@H](NC(=O)COCCOCCOCCN(C)C(=O)CCNc2nc(N3CCN(C(=O)C(O)O)CC3)c3cc(Cl)c(-c4c(O)cccc4F)c(F)c3n2)C(C)(C)C)cc1 (atropisomer, axis not shown) [compound 239, (2S4R)-1-((S)-2-(tert-butyl)-18-((6-chloro-4-(4-(2,2-dihydroxyacetyl)piperazin-1-yl)-8-fluoro-7-((R)-2-fluoro-6-hydroxyphenyl)quinazolin-2-yl)amino)-15-methyl-4,16-dioxo-6,9,12-trioxa-3,15-diazaoctadecanoyl)-4-hydroxy-N-((S)-1-(4-(4-methylthiazol-5-yl)phenyl)ethyl)pyrrolidine-2-carboxamide,]	Percent Degradation at Indicated Concentration (μM) (H2030 cells, 0.3 μM): C (Percent Degradation: C ≤ 35); Percent Degradation at Indicated Concentration (μM) (H2030 cells, 1 μM): C (Percent Degradation: C ≤ 35); Percent Degradation at Indicated Concentration (μM) (H2030 cells, 3 μM): C (Percent Degradation: C ≤ 35)
–	–	–	–	C (Percent Degradation: C ≤ 35)	C (Percent Degradation: C ≤ 35)	C (Percent Degradation: C ≤ 35)	≤ 35	C=CC(=O)N1CCN(c2nc(NCCC(=O)N(C)CCOCCOCC(=O)N[C@H](C(=O)N3C[C@H](O)C[C@H]3C(=O)N[C@@H](C)c3ccc(-c4scnc4C)cc3)C(C)(C)C)nc3c(F)c(-c4c(O)cccc4F)c(Cl)cc23)CC1 (atropisomer, axis not shown) [compound 208, (2S,4R)-1-((S)-15-(((R)-4-(4-acryloylpiperazin-1-yl)-6-chloro-8-fluoro-7-(2-fluoro-6-hydroxyphenyl)quinazolin-2-yl)amino)-2-(tert-butyl)-12-methyl-4,13-dioxo-6,9-dioxa-3,12-diazapentadecanoyl)-4-hydroxy-N-((S)-1-(4-(4-methylthiazol-5-yl)phenyl)ethyl)pyrrolidine-2-carboxamide]	–
–	–	–	–	C (Percent Degradation: C ≤ 35)	C (Percent Degradation: C ≤ 35)	C (Percent Degradation: C ≤ 35)	≤ 35	C=CC(=O)N1CCN(c2nc(NCCC(=O)N(C)CCOCCOCCOCCOCCOCC(=O)N[C@H](C(=O)N3C[C@H](O)C[C@H]3C(=O)N[C@@H](C)c3ccc(-c4scnc4C)cc3)C(C)(C)C)nc3c(F)c(-c4c(O)cccc4F)c(Cl)cc23)CC1 [compound 214, (2S,4R)-1-((S)-24-(((R)-4-(4-acryloylpiperazin-1-yl)-6-chloro-8-fluoro-7-(2-fluoro-6-hydroxyphenyl)quinazolin-2-yl)amino)-2-(tert-butyl)-21-methyl-4,22-dioxo-6,9,12,15,18-pentaoxa-3,21-diazatetracosanoyl)-4-hydroxy-N-((S)-1-(4-(4-methylthiazol-5-yl)phenyl)ethyl)pyrrolidine-2-carboxamide]	–
C (C ≤ 35)	C (C ≤ 35)	C (C ≤ 35)	≤ 35	–	–	–	–	CCC(=O)N1CCN(c2nc(NCCC(=O)N(C)CCOCCOCCOc3cc(-c4scnc4C)ccc3CNC(=O)[C@@H]3C[C@@H](O)CN3C(=O)[C@@H](c3cc(C)no3)C(C)C)nc3c(F)c(-c4cc(O)cc5ccccc45)c(Cl)cc23)CC1 [compound 332, (2S,4R)-N-(2-(2-(2-(2-(3-((6-chloro-8-fluoro-7-(3-hydroxynaphthalen-1-yl)-4-(4-propionylpiperazin-1-yl)quinazolin-2-yl)amino)-N-methylpropanamido)ethoxy)ethoxy)-ethoxy)-4-(4-methylthiazol-5-yl)benzyl)-4-hydroxy-1-((R)-3-methyl-2-(3-methylisoxazol-5-yl)butanoyl)pyrrolidine-2-carboxamide]	–
